Where “and” joins values, the source holds several entries; their conditions need not be identical. Identical values can stand only once. ± gives the expanded uncertainty stated by the source.
Test: xn = mol fraction of the nth substance listed
Conditions: 298.15 K, 92.3 kPa, Liquid; for viscosity: Concentric cylinders viscometry; for speed of sound: Frequency=3 MHz, Single path-length method; for mass density: Vibrating tube method

CCO [ethanol] + O
viscosity (x1 = 0.0201): 1.098 ± 0.15 mPa·s
viscosity (x1 = 0.0408): 1.336 ± 0.19 mPa·s
viscosity (x1 = 0.0497): 1.432 ± 0.2 mPa·s
viscosity (x1 = 0.06): 1.551 ± 0.22 mPa·s
viscosity (x1 = 0.0796): 1.748 ± 0.24 mPa·s
viscosity (x1 = 0.1004): 1.947 ± 0.27 mPa·s
viscosity (x1 = 0.1499): 2.242 ± 0.31 mPa·s
viscosity (x1 = 0.1984): 2.371 ± 0.33 mPa·s
viscosity (x1 = 0.2499): 2.429 ± 0.34 mPa·s
viscosity (x1 = 0.3016): 2.339 ± 0.33 mPa·s
viscosity (x1 = 0.3499): 2.263 ± 0.32 mPa·s
viscosity (x1 = 0.399): 2.17 ± 0.3 mPa·s
viscosity (x1 = 0.4495): 2.066 ± 0.29 mPa·s
viscosity (x1 = 0.4989): 1.956 ± 0.27 mPa·s
viscosity (x1 = 0.5495): 1.88 ± 0.26 mPa·s
viscosity (x1 = 0.6067): 1.744 ± 0.24 mPa·s
viscosity (x1 = 0.6503): 1.659 ± 0.23 mPa·s
viscosity (x1 = 0.6956): 1.572 ± 0.22 mPa·s
viscosity (x1 = 0.75): 1.483 ± 0.21 mPa·s
viscosity (x1 = 0.7843): 1.43 ± 0.2 mPa·s
viscosity (x1 = 0.8475): 1.342 ± 0.19 mPa·s
viscosity (x1 = 0.8864): 1.271 ± 0.18 mPa·s
viscosity (x1 = 0.929): 1.204 ± 0.17 mPa·s
viscosity (x1 = 1): 1.091 ± 0.15 mPa·s
speed of sound (x1 = 0.0024): 1501.5 ± 1.8 m/s
speed of sound (x1 = 0.0202): 1532.7 ± 1.8 m/s
speed of sound (x1 = 0.0295): 1548.2 ± 1.8 m/s
speed of sound (x1 = 0.0366): 1559.6 ± 1.8 m/s
speed of sound (x1 = 0.0513): 1581.3 ± 1.8 m/s
speed of sound (x1 = 0.06): 1592.1 ± 1.8 m/s
speed of sound (x1 = 0.0707): 1603.2 ± 1.8 m/s
speed of sound (x1 = 0.0801): 1610.7 ± 1.8 m/s
speed of sound (x1 = 0.0904): 1616.4 ± 1.8 m/s
speed of sound (x1 = 0.0997): 1619 ± 1.8 m/s
speed of sound (x1 = 0.1294): 1613.3 ± 1.8 m/s
speed of sound (x1 = 0.1497): 1600.1 ± 1.8 m/s
speed of sound (x1 = 0.2008): 1553.7 ± 1.8 m/s
speed of sound (x1 = 0.2503): 1507 ± 1.8 m/s
speed of sound (x1 = 0.2998): 1464.5 ± 1.8 m/s
speed of sound (x1 = 0.3507): 1426.2 ± 1.8 m/s
speed of sound (x1 = 0.3992): 1394.2 ± 1.8 m/s
speed of sound (x1 = 0.4514): 1363.9 ± 1.8 m/s
speed of sound (x1 = 0.5002): 1337.9 ± 1.8 m/s
speed of sound (x1 = 0.5494): 1314.5 ± 1.8 m/s
speed of sound (x1 = 0.6018): 1291.5 ± 1.8 m/s
speed of sound (x1 = 0.6503): 1271.8 ± 1.8 m/s
speed of sound (x1 = 0.7006): 1252.3 ± 1.8 m/s
speed of sound (x1 = 0.7355): 1239.1 ± 1.8 m/s
speed of sound (x1 = 0.7965): 1217 ± 1.8 m/s
speed of sound (x1 = 0.8433): 1200.2 ± 1.8 m/s
speed of sound (x1 = 0.892): 1182.5 ± 1.8 m/s
speed of sound (x1 = 0.9093): 1176.3 ± 1.8 m/s
speed of sound (x1 = 0.9207): 1172.3 ± 1.8 m/s
speed of sound (x1 = 0.9307): 1168.6 ± 1.8 m/s
speed of sound (x1 = 0.9398): 1165.4 ± 1.8 m/s
speed of sound (x1 = 0.9483): 1162.3 ± 1.8 m/s
speed of sound (x1 = 0.9603): 1158.1 ± 1.8 m/s
speed of sound (x1 = 0.9702): 1154.5 ± 1.8 m/s
speed of sound (x1 = 0.9801): 1151.3 ± 1.8 m/s
speed of sound (x1 = 0.9895): 1147.8 ± 1.8 m/s
speed of sound (x1 = 1): 1143.5 ± 1.8 m/s
mass density (x1 = 0.0024): 995.871 ± 3 kg/m3
mass density (x1 = 0.0201): 988.31 ± 3.2 kg/m3
mass density (x1 = 0.0202): 988.159 ± 3.2 kg/m3
mass density (x1 = 0.0295): 984.669 ± 3.2 kg/m3
mass density (x1 = 0.0366): 982.196 ± 3.2 kg/m3
mass density (x1 = 0.0408): 980.85 ± 3.2 kg/m3
mass density (x1 = 0.0497): 977.99 ± 3.2 kg/m3
mass density (x1 = 0.0513): 977.287 ± 3.2 kg/m3
mass density (x1 = 0.06): 974.31 ± 3.2 kg/m3 and 974.729 ± 3.2 kg/m3
mass density (x1 = 0.0707): 971.631 ± 3.2 kg/m3
mass density (x1 = 0.0796): 969.17 ± 3.2 kg/m3
mass density (x1 = 0.0801): 968.969 ± 3.2 kg/m3
mass density (x1 = 0.0904): 966.039 ± 3.2 kg/m3
mass density (x1 = 0.0997): 963.419 ± 3.2 kg/m3
mass density (x1 = 0.1004): 961.4 ± 3.2 kg/m3
mass density (x1 = 0.1294): 954.963 ± 3.2 kg/m3
mass density (x1 = 0.1497): 948.951 ± 3.2 kg/m3
mass density (x1 = 0.1499): 948.9 ± 3.2 kg/m3
mass density (x1 = 0.1984): 931.84 ± 3.2 kg/m3
mass density (x1 = 0.2008): 933.41 ± 3.2 kg/m3
mass density (x1 = 0.2499): 918.95 ± 3.2 kg/m3
mass density (x1 = 0.2503): 918.708 ± 3.2 kg/m3
mass density (x1 = 0.2998): 904.858 ± 3.2 kg/m3
mass density (x1 = 0.3016): 904.86 ± 3.2 kg/m3
mass density (x1 = 0.3499): 892.28 ± 3.2 kg/m3
mass density (x1 = 0.3507): 891.711 ± 3.2 kg/m3
mass density (x1 = 0.399): 880.34 ± 3.2 kg/m3
mass density (x1 = 0.3992): 880.239 ± 3.2 kg/m3
mass density (x1 = 0.4495): 869.34 ± 3.2 kg/m3
mass density (x1 = 0.4514): 869.012 ± 3.2 kg/m3
mass density (x1 = 0.4989): 860.04 ± 3.2 kg/m3
mass density (x1 = 0.5002): 858.963 ± 3.2 kg/m3
mass density (x1 = 0.5494): 849.801 ± 3.2 kg/m3
mass density (x1 = 0.5495): 850.72 ± 3.2 kg/m3
mass density (x1 = 0.6018): 840.665 ± 3.2 kg/m3
mass density (x1 = 0.6067): 840.19 ± 3.2 kg/m3
mass density (x1 = 0.6503): 832.95 ± 3.2 kg/m3 and 832.839 ± 3.2 kg/m3
mass density (x1 = 0.6956): 826.05 ± 3.2 kg/m3
mass density (x1 = 0.7006): 825.07 ± 3.2 kg/m3
mass density (x1 = 0.7355): 819.907 ± 3.2 kg/m3
mass density (x1 = 0.75): 818.03 ± 3.2 kg/m3
mass density (x1 = 0.7843): 813.49 ± 3.2 kg/m3
mass density (x1 = 0.7965): 811.475 ± 3.2 kg/m3
mass density (x1 = 0.8433): 805.219 ± 3.2 kg/m3
mass density (x1 = 0.8475): 805.63 ± 3.1 kg/m3
mass density (x1 = 0.8864): 799.93 ± 3.1 kg/m3
mass density (x1 = 0.892): 798.808 ± 3.2 kg/m3
mass density (x1 = 0.9093): 796.615 ± 3.2 kg/m3
mass density (x1 = 0.9207): 795.193 ± 3.1 kg/m3
mass density (x1 = 0.929): 794.19 ± 3.1 kg/m3
mass density (x1 = 0.9307): 793.91 ± 3.1 kg/m3
mass density (x1 = 0.9398): 792.821 ± 3.1 kg/m3
mass density (x1 = 0.9483): 791.735 ± 3.1 kg/m3
mass density (x1 = 0.9603): 790.291 ± 3.1 kg/m3
mass density (x1 = 0.9702): 789.073 ± 3.1 kg/m3
mass density (x1 = 0.9801): 787.741 ± 3.1 kg/m3
mass density (x1 = 0.9895): 786.779 ± 3.1 kg/m3
mass density (x1 = 1): 785.26 ± 3 kg/m3
